Experimental data as given in patent publication US11891703B2, “Corrosion inhibition package” (DORF KETAL CHEMICALS FZE, priority 2017, dated 2024).

What was measured:
[1] = death can occur in 2-3 minutes; cited from earlier work
[2] = cited from earlier work
[3] = Corrosion test of acid compositions with corrosion inhibition package on 1018 steel coupons; details: Table 3, 1.2:1 HCl-Urea, 50% dilution in seawater, 90° C., 6 hours, 1% package + 1% CI-1A
Excerpt: Various types of steel alloy coupons were subjected to corrosion testing in the presence of conventional, synthetic and modified acid compositions using corrosion inhibitor components according to preferred embodiments of the present invention at various temperatures. Coupons of various grades of steel alloys (indicated in each table) were exposed to the various listed compositions for various periods of time at varying temperatures.
The following corrosion testing outlined in the tables below for a number of different corrosion inhibition packages according to the present invention in the presence of a synthetic or modified acid composition was carried out diluted with saline water (in most cases) at various temperatures for various durations of exposure. Depending on the intended use/application of an acidic fluid composition comprising a corrosion inhibitor package according to the present invention, a desirable result would be one where the lb/ft^2 corrosion number is at or below 0.05. A more desirable would be one where the corrosion (in lb/ft^2) is at or below 0.02. Generally, seawater has the deleterious effect of potentiating corrosion, consequently corrosion inhibition packages which follow the guidelines or regulations for offshore oil production are highly desirable for operators. Where applicable the fluids (acid compositions) were diluted as indicated.

[4] = cited from earlier work; remark: listed apart in the source

## Cl [Hydrogen chloride gas, Hydrogen chloride]
[1]
  level at which death can occur: 1300-2000 ppm

## CCCCCCOCCOCCOCCO [NOVEL® 6-3 Ethoxylate, CH3 (CH2)4CH2(OCH2CH2)3OH]
[2]
  solubility in hydrocarbons: soluble
  solubility in water: sparingly soluble

## O=CC=Cc1ccccc1 [ZA, Cinnamaldehyde]
[3]
  Corrosion lb/ft2: 0.008 lb/ft2
  Corrosion rate Mils/yr: 296.053 Mils/yr
  Corrosion rate mm/year: 7.52 mm/year
  Wt loss: 0.168 g

## C#CCO [propargyl alcohol]
[4]
  performance on Cr-13 alloys (pitting): poor performance
